pIC50: −log10 of the molar value.
What follows are compounds tested against T1, TGFβ R1 (Homo sapiens, UniProt P36897) (assay: TGFβ R1 autophosphorylation protocol (33P-ATP, phosphocellulose filter plate)). Conditions: 10 uM ATP, 170 nM TGFβ R1, 20 minutes at room temperature, read-out: IC50 for Kinase Inhibition.
T1 sequence (P36897 34-503): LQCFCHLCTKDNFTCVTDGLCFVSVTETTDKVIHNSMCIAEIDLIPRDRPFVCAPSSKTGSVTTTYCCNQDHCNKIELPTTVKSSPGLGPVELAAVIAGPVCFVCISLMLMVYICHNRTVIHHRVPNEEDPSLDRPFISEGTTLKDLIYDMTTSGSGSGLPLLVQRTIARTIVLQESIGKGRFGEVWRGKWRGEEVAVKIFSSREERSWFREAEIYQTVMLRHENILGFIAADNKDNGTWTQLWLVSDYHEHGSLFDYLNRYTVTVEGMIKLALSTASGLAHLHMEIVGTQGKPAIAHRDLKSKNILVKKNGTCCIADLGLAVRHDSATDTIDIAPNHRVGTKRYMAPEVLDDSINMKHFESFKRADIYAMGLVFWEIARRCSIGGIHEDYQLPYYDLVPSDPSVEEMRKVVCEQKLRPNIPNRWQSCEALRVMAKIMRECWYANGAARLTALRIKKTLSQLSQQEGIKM
Assay type: biochemical
Method in brief: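 Radiometric autophosphorylation: 170 nM enzyme with compound (≤1% DMSO), 10 uM ATP plus γ-33P-ATP, […] in 20 mM MOPS pH 7, 20 min at room temperature. Reaction stopped on phosphocellulose filter, washed with H3PO4 and ethanol, counted by scintillation.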
`COc1cnc(-c2cc(Cl)ccc2F)nc1Nc1ccncc1C(=O)NC1CCN(C(=O)OC(C)(C)C)C1` (stereo not drawn) [Compound 82, 3-((4-[2-(5-Chloro-2-fluoro-phenyl)-5-methoxy-pyrimidin-4-ylamino]-pyridine-3-carbonyl)-amino)-pyrrolidine-1-carboxylic acid tert-butyl ester] showed a pIC50 of 6.51. With `COc1cnc(-c2cc(Cl)ccc2F)nc1Nc1ccncc1C(=O)NCC(C)C(=O)O` (stereo not drawn) [Compound 56, 3-({4-[2-(5-Chloro-2-fluoro-phenyl)-5-methoxy-pyrimidin-4-ylamino)-pyridine-3-carbonyl)-amino)-2-methyl-propionic acid] the pIC50 was 5.92. `COc1ccc(NC(=O)NCCCNC(=O)c2cnccc2Nc2nc(-c3cc(Cl)ccc3F)ncc2OC)cc1OC` [Compound 67, 4-[2-(5-Chloro-2-fluoro-phenyl)-5-methoxy-pyrimidin-4-ylamino]-N-{3-[3-(3,4-dimethoxy-phenyl)-ureido]-propyl}-nicotinamide] gave a pIC50 of 6.36. Compound `COc1cnc(-c2cc(Cl)ccc2F)nc1Nc1ccncc1C(=O)NCCNC(=O)CC1O[C@H](CO)[C@@H](O)[C@H](O)[C@H]1O` (stereo partly drawn) [Compound 147, 4-[2-(5-Chloro-2-fluoro-phenyl)-5-methoxy-pyrimidin-4-ylamino]-N-{2-[2-(3,4,5-trihydroxy-6-hydroxymethyl-tetrahydro-pyran-2-yl)-acatylamino]-ethyl}-nicotinamide] has a pIC50 of 6.90. With `COc1cnc(-c2cc(Cl)ccc2F)nc1Nc1ccncc1C(=O)NCCNCC(C)O` (stereo not drawn) [Compound 5] the pIC50 was 7.70. Compound `COc1cnc(-c2cc(Cl)ccc2F)nc1Nc1ccncc1C(=O)NCCCN1CCCC1` [Compound 29] has a pIC50 of 7.52. In the case of `COc1cnc(-c2cc(Cl)ccc2F)nc1Nc1ccncc1C(=O)NCC1CCCC[C@H]1O` (stereo in doubt) [Compound 31, 4-[2-(5-Chloro-2-fluoro-phenyl)-5-methoxy-pyrimidin-4-ylamino]-N-(2-hydroxy-cyclohexylmethyl)-nicotinamide], the pIC50 was 6.43. `COC[C@@H]1OC(CCNCCCNC(=O)c2cnccc2Nc2nc(-c3cc(Cl)ccc3F)ncc2OC)[C@@H](OC)[C@H](OC)[C@H]1OC` (stereo partly drawn) [Compound 125, 4-[2-(5-Chloro-2-fluoro-phenyl)-5-methoxy-pyrimidin-4-ylamino]-N-{3-[2-(3,4,5-trimethoxy-6-methoxymethyl-tetrahydro-pyran-2-yl)-ethylamino]-propyl}-nicotinamide] gave a pIC50 of 7.49. Compound `CCOC(=O)CNC(=O)c1cnccc1Nc1nc(-c2cc(Cl)ccc2F)ncc1OC` [Compound 1, ({4-[2-(5-Chloro-2-fluoro-phenyl)-5-methoxy-pyrimidin-4-ylamino]pyridine-3-carbonyl}-amino)-acetic acid ethyl ester] has a pIC50 of 7.40. Work on `COC(=O)[C@H]1C[C@@H](NC(=O)c2cnccc2Nc2nc(-c3cc(Cl)ccc3F)ncc2OC)CN1` [Compound 89, 4-({4-[2-(5-Chloro-2-fluoro-phenyl)-5-methoxy-pyrimidin-4-ylamino]-pyridine-3-carbonyl}-amino)-pyrrolidine-2-carboxylic acid methyl ester] yielded a pIC50 of 6.72. Work on `COc1cnc(-c2cc(Cl)ccc2F)nc1Nc1ccncc1C(=O)N[C@H]1CCNC1` [Compound 128, 4-[2-(5-Chloro-2-fluoro-phenyl)-5-methoxy-pyrimidin-4-ylamino]-N-pyrrolidin-3-yl-nicotinamide] yielded a pIC50 of 8.10. For `COc1cnc(-c2cc(Cl)ccc2F)nc1Nc1ccncc1C(=O)NCCNCCO` [Compound 6, 4-[2-(5-Chloro-2-fluoro-phenyl)-5-methoxy-pyrimidin-4-ylamino]-N-[2-(2-hydroxy-ethylamino)-ethyl]-nicotinamide], the pIC50 was 8.00. Work on `COc1cnc(-c2cc(Cl)ccc2F)nc1Nc1ccncc1C(=O)NCCN` [Compound 39, N-(2-Amino-ethyl)-4-[2-(5-chloro-2-fluoro-phenyl)-5-methoxy-pyrimidin-4-ylamino]-nicotinamide] yielded a pIC50 of 7.30. `COc1cnc(-c2cc(Cl)ccc2F)nc1Nc1ccncc1C(=O)NCCOCCO` [Compound 104, 4-[2-(5-Chloro-2-fluoro-phenyl)-5-methoxy-pyrimidin-4-ylamino]-N-[2-(2-hydroxy-ethoxy)-ethyl]-nicotinamide] was tested, and the pIC50 was 6.51. `COc1cnc(-c2cc(Cl)ccc2F)nc1Nc1ccncc1C(=O)NCCCNC(=O)CO[C@H]1O[C@H](CO)[C@H](O)[C@H](O)[C@H]1O` [Compound 140, 4-[2-(5-Chloro-2-fluoro-phenyl)-5-methoxy-pyrimidin-4-ylamino]-N-{3-[2-(3,4,5-trihydroxy-6-hydroxymethyl-tetrahydro-pyran-2-yloxy)-acetylamino]-propyl}-nicotinamide] gave a pIC50 of 7.36.

Same assay, conditions: 10 uM ATP, 170 nM TGFβ R1, room temperature 20 minutes, read-out: IC50 for Kinase Inhibition
Compound `COc1cnc(-c2cc(Cl)ccc2F)nc1Nc1ccncc1C(=O)NO` [Compound 238, 4-[2-(5-Chloro-2-fluoro-phenyl)-5-methoxy-pyrimidine-4-ylamino]-N-hydroxy-nicotinamide] has a pIC50 of 5.97. Work on `CC(C)c1cnc(-c2cc(Cl)ccc2F)nc1Nc1ccncc1C(=O)NCCCN1CCC[C@H]1C(=O)N1CCCC1` [Compound 190, 4-[2-(5-Chloro-2-fluoro-phenyl)-5-isopropyl-pyrimidin-4-ylamino]-N-{3-[2-(pyrrolidine-1-carbonyl)-pyrrolidine-1-yl]-propyl}-nicotinamide] yielded a pIC50 of 8.05. For `COc1cnc(-c2cc(Cl)ccc2F)nc1Nc1ccncc1C(=O)N1CC[C@H](N)C1` [Compound 211, (3-Amino-pyrrolidin-1-yl)-{4-[2-(5-chloro-2-fluoro-phenyl)-5-methoxy-pyrimidin-4-ylamino]-pyridin-3-yl)-methanone], the pIC50 was 6.59. In the case of `COc1cnc(-c2cc(Cl)ccc2F)nc1Nc1ccncc1C(=O)NCCCCCNC(=O)CCCC[C@H]1SC[C@@H]2NC(=O)N[C@@H]21` [Compound 202, 4-[2-(5-Chloro-2-fluoro-phenyl)-5-methoxy-pyrimidin-4-ylamino]-N-{5-[5-(2-oxo-hexahydro-thieno[3,4-d]imidazol-6-yl)-pentanoylamino]-pentyl]-nicotinamide], the pIC50 was 7.27. Compound `COc1cnc(-c2cc(Cl)ccc2F)nc1Nc1ccncc1C(=O)N1CC[C@@H](F)C1` [Compound 241, {4-[2-(5-Chloro-2-fluoro-phenyl)-5-methoxy-pyrimidin-4-ylamino]-pyridin-3-yl}-(3-fluoro-pyrrolidin-1-yl)-methanone] has a pIC50 of 6.90. Compound `CC(C)c1cnc(-c2cc(Cl)ccc2F)nc1Nc1ccncc1C(=O)NCCCN1CCC[C@@H]1C(=O)N1CCCC1` [Compound 180] has a pIC50 of 8.30. Compound `CCOP(=O)(OCC)OC(C)(C)CNC(=O)c1cnccc1Nc1nc(-c2cc(Cl)ccc2F)ncc1C(C)C` [Compound 192] has a pIC50 of 6.91. With `COc1cnc(-c2cc(Cl)ccc2F)nc1Nc1ccncc1C(=O)N1CCOCC1` [Compound 203, {4-[2-(5-Chloro-2-fluoro-phenyl)-5-methoxy-pyrimidin-4-ylamino]-pyridin-3-yl}-morpholin-4-yl-methanone] the pIC50 was 6.75. For `CC(C)c1cnc(-c2cc(Cl)ccc2F)nc1Nc1ccncc1C(=O)NCCC(=O)N1CCC[C@H]1C(=O)N(C)C` [Compound 194, 4-[2-(5-Chloro-2-fluoro-phenyl)-5-isopropyl-pyrimidin-4-ylamino]-N-[3-(2-dimethyl-carbamoyl-pyrrolidin-1-yl)-3-oxo-propyl]-nicotinamide], the pIC50 was 7.39. `COc1cnc(-c2cc(Cl)ccc2F)nc1Nc1ccncc1C(=O)N1CC[C@@H](N)C1` [Compound 174, (3-Amino-pyrrolidin-1-yl)-{4-[2-(5-chloro-2-fluoro-phenyl)-5-methoxy-pyrimidin-4-ylamino]-pyridin-3-yl}-methanone] gave a pIC50 of 5.93. In the case of `CC(C)c1cnc(-c2cc(Cl)ccc2F)nc1Nc1ccncc1C(=O)N1CCN(C)CC1` [Compound 208, {4-[2-(5-Chloro-2-fluoro-phenyl)-5-isopropyl-pyrimidin-4-ylamino]-pyridin-3-yl}-(4-methyl-piperazin-1-yl)-methanone], the pIC50 was 5.79. `CC(C)c1cnc(-c2cc(Cl)ccc2F)nc1Nc1ccncc1C(=O)NCCCN1CCC[C@@H]1C(=O)N(C)C` [Compound 181, 4-[2-(5-Chloro-2-fluoro-phenyl)-5-isopropyl-pyrimidin-4-ylamino]-N-[3-(2-dimethylcarbamoyl-pyrrolidin-1-yl)-propyl]-nicotinamide] gave a pIC50 of 8.22. With `CC(O)CNC(=O)c1c[n+]([O-])ccc1Nc1nc(-c2cc(Cl)ccc2F)ncc1C(C)C` (stereo not drawn) [Compound 198, 4-[2-(5-Chloro-2-fluoro-phenyl)-5-isopropyl-pyrimidin-4-ylamino]-N-(2-hydroxy-propyl)-1-oxy-nicotinamide] the pIC50 was 6.83. For `CCOCCCNC(=O)c1cnccc1Nc1nc(-c2cc(Cl)ccc2F)ncc1C(C)C` [Compound 187, 4-[2-(5-Chloro-2-fluoro-phenyl)-5-isopropyl-pyrimidin-4-ylamino]-N-(3-ethoxy-propyl)-nicotinamide], the pIC50 was 7.92. `CN1CCN(C(=O)c2cnccc2Nc2nc(-c3cc(Cl)ccc3F)ncc2C2CCCC2)CC1` [Compound 213, {4-[2-(5-Chloro-2-fluoro-phenyl)-5-cyclopentyl-pyrimidin-4-ylamino]-pyridin-3-yl}-(4-methyl-piperazin-1-yl)-methanone] gave a pIC50 of 4.89.

— patent US20060281763A1, “Carboxamide inhibitors of TGFbeta” (priority 2005, published 2006)
